Where two headings read alike, the source gives them in different places.
How the values were obtained:
Cytotoxicity assay = assay type: cell-based, human; conditions: human, A549 cells
A549 cells = test: Cytotoxicity assay; assay type: cell-based, human
[1] = tested on: IAV H1N1 strain A/Puerto Rico/8/1934; test: microbe, parasite or virus in culture; assay type: cell-based, influenza A virus; conditions: for IC50: Influenza A virus, H1N1, A549, 48 h
[2] = tested on: IAV H1N1 strain A/Puerto Rico/8/1934; assay type: cell-based, influenza A virus
[3] = tested on: host antiviral genes (IFITM-1, ISG15, ISG20, Mx-A, OAS-1, RSAD2, SHFL) in A549 cells; assay type: cell-based, human
[4] = tested on: IAV H1N1 strain A/Puerto Rico/8/1934; test: microbe, parasite or virus in culture; assay type: cell-based, influenza A virus
[5] = tested on: IAV H1N1 strain A/Puerto Rico/8/1934; test: microbe, parasite or virus in culture; assay type: cell-based, influenza A virus; remark: listed apart in the source
[6] = tested on: IAV H1N1 strain A/Puerto Rico/8/1934; test: microbe, parasite or virus in culture; assay type: cell-based, influenza A virus; remark: listed apart in the source
[7] = tested on: IAV H1N1 strain A/Puerto Rico/8/1934; test: microbe, parasite or virus in culture; assay type: cell-based, influenza A virus; remark: listed apart in the source
[8] = tested on: dengue virus serotype 2 (DENV-2); conditions: cells treated 2 h before viral infection (-2 h); ref 15 (Oo et al.); cited from earlier work
[9] = after 48 h of incubation at concentrations of up to 1000 μM

SMILES | CC50 at 3 days (Cytotoxicity assay) [µM] | cytotoxicity on A549 cells (A549 cells; after 48 h of incubation at concentrations of up to 5000 μM) | viral RNA levels [1] | IC50 [1] [µM] | percentage of viral RNA copy numbers vs virus control [2] | fold change of ISG15 expression (relative quantification) [3] | fold change of Mx-A expression (relative quantification) [3] | fold change of OAS-1 expression (relative quantification) [3] | fold change of SHFL expression (relative quantification) [3] | viral RNA reduction, virucidal assay ([4]; 25 μM) | IC50 ([4]; Influenza A virus, H1N1, A549, read-out: IC50 of diosmin, virucidal assay) [µM] | viral RNA reduction, attachment assay ([5]; 25 μM) | IC50 ([5]; Influenza A virus, H1N1, A549, read-out: IC50 of diosmin, attachment assay) [µM] | reduction of viral RNA, entry assay ([6]; 25 μM) | IC50 ([6]; Influenza A virus, H1N1, A549, read-out: IC50 of diosmin, entry assay) [µM] | viral RNA reduction, post-entry assay ([7]; 25 μM) | IC50 ([7]; Influenza A virus, H1N1, A549, read-out: IC50 of diosmin, post-entry assay) [µM] | suppression of DENV-2 RNA [8] | cytotoxicity on A549 cells (A549 cells; [9])
COc1ccc(-c2cc(=O)c3c(O)cc(O[C@@H]4O[C@H](CO[C@@H]5O[C@@H](C)[C@H](O)[C@@H](O)[C@H]5O)[C@@H](O)[C@H](O)[C@H]4O)cc3o2)cc1O [Diosmin, diosmetin 7-O-rutinoside] | 11300 | no significant cytotoxicity | less than 20% | 2.91 ± 3.22 | significant reduction | 6.774 | 2.163 | 2.035 | 4.148 | exceeding 40% | 41.3 ± 4.56 | exceeding 40% | 13.3 ± 2.37 | under 40% | 39.2 ± 0.63 | exceeding 40% | 12.2 ± 1.55 | over 50% | –
O=c1cc(-c2ccc(O)c(O)c2)oc2c([C@@H]3O[C@H](CO)[C@@H](O)[C@H](O)[C@H]3O)c(O)cc(O)c12 [Orientin] | 1043 ± 3.41 | – | – | 8.98 ± 2.03 | – | – | – | – | – | – | – | – | – | – | – | – | – | – | no significant cytotoxicity
O=c1c(O)c(-c2ccc(O)c(O)c2)oc2cc(O)ccc12 [Fisetin] | 1190 ± 3.52 | – | – | 143 ± 6.19 | – | – | – | – | – | – | – | – | – | – | – | – | – | – | no significant cytotoxicity
